Experimental data taken from PubChem BioAssay (NCI).
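All cell lines were grown in 96-well plates and treated with compound for 48 hours. At the GI50, growth is halved. TGI: total growth inhibition.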

Legend:
Experiment in all cases: DTP human tumour cell line panel, 48 h
786-0 renal = test system: 786-0 renal
A498 renal = test system: A498 renal
HCT-116 colon = test system: HCT-116 colon
HOP-62 NSCLC = test system: HOP-62 NSCLC
HS 578T breast = test system: HS 578T breast
LOX IMVI melanoma = test system: LOX IMVI melanoma
MDA-MB-231 breast = test system: MDA-MB-231 breast
OVCAR-4 ovarian = test system: OVCAR-4 ovarian
OVCAR-8 ovarian = test system: OVCAR-8 ovarian
SF-295 CNS = test system: SF-295 CNS

SMILES | TGI (786-0 renal) | TGI (A498 renal) | TGI (HCT-116 colon) | TGI (HOP-62 NSCLC) | TGI (HS 578T breast) | TGI (LOX IMVI melanoma) | TGI (MDA-MB-231 breast) | TGI (OVCAR-4 ovarian) | TGI (OVCAR-8 ovarian) | TGI (SF-295 CNS) | GI50 (786-0 renal) | GI50 (A498 renal) | GI50 (HCT-116 colon) | GI50 (HOP-62 NSCLC) | GI50 (HS 578T breast) | GI50 (LOX IMVI melanoma) | GI50 (MDA-MB-231 breast) | GI50 (OVCAR-4 ovarian) | GI50 (OVCAR-8 ovarian) | GI50 (SF-295 CNS)
CCOC(=O)Cc1csc(N=Nc2c(O)[nH]c3ccccc23)n1 | > 100 µM | > 100 µM | > 100 µM | > 100 µM | > 100 µM | > 100 µM | > 100 µM | > 100 µM | > 100 µM | > 100 µM |  |  |  |  |  |  |  |  |  | 
CCCCCCNC(=O)Oc1ccc(/C(=C(/C)Cc2ccc(OC)cc2)c2ccc(OCCN(C)C)cc2)cc1 | 9.49 µM | 9.92 µM | 10.3 µM | 11 µM | 12.3 µM | 8.8 µM | 9.65 µM | 10.3 µM | 11.1 µM | 9.82 µM | 4970 nM | 5340 nM | 5520 nM | 6.18 µM | 5870 nM | 4390 nM | 5 µM | 5.02 µM | 5.32 µM | 5200 nM
COc1ccc([C@@H](O)c2cc(-c3ncnc4cc(N5CCOCC5)ccc34)c(F)cc2Cl)nn1 | 25.3 µM | 0.943 µM | 21.4 µM | > 100 µM | 15.3 µM | 24.8 µM | > 100 µM | > 100 µM | 78.4 µM | 25.8 µM | 1100 nM | 228 nM | 3290 nM | 12.5 µM | 750 nM | 2840 nM | 4.96 µM | 6.12 µM | 5.92 µM | 1480 nM
N=c1ccc2nc3c(cc(N)c4ccccc43)oc-2c1 | 2.3 µM | 0.78 µM | 0.353 µM | 0.798 µM | 0.622 µM | 0.378 µM | 1.21 µM | 0.235 µM | 3.28 µM | 0.599 µM | 1070 nM |  | 167 nM | 0.267 µM | 201 nM | 103 nM | 0.179 µM | 0.0919 µM | 0.457 µM | 199 nM
CN(C)CCCc1c2ccccc2nc2ccc(Cl)cc12 | 24.4 µM | 34.2 µM | 25.4 µM | 30 µM | 34.4 µM | 29.1 µM | 31.9 µM | 56.1 µM | 32.6 µM | 30.9 µM |  |  |  |  |  |  |  |  |  | 
Cc1ccc2sc3ccc(N)cc3c(=O)c2c1 | > 100 µM | > 100 µM | > 100 µM | > 100 µM | > 100 µM | > 100 µM | > 100 µM | > 100 µM | > 100 µM | > 100 µM |  |  |  |  |  |  |  |  |  | 
CC12CC=CCC1CCC1C2CCC2(C)C(c3ccc(=O)oc3)CCC12O (centres undefined) | 0.209 µM | 0.54 µM | 0.143 µM | 0.201 µM | 0.473 µM | 0.213 µM | 1.64 µM | 0.641 µM | 0.324 µM | 0.25 µM | 38.7 nM | 76.8 nM | 34.9 nM | 0.0459 µM | 33.5 nM | 56.2 nM | 0.336 µM | 0.197 µM | 0.0944 µM | 46.2 nM
COC(=O)[C@]1(C)CCC[C@@]2(C)[C@@H]3C[C@@H]4[C@H]5C[C@@]3(CC[C@@H]21)C[C@@]45C | 29.6 µM | 34.1 µM | 45.2 µM | 32.2 µM | 47.9 µM | 34.9 µM | 29.9 µM | 26.7 µM | 30.6 µM | 28.5 µM |  |  |  |  |  |  |  |  |  | 
CSc1nsc(S/C=C\C(=O)c2ccc(C)cc2)n1 | 28.9 µM | 0.169 µM | 25.7 µM | 43.8 µM | 6.33 µM | 10.8 µM | 27.5 µM | > 58.9 µM | 57.5 µM | 40.4 µM | 14800 nM | 15.3 nM | 13000 nM | 21 µM | 187 nM | 4940 nM | 11.3 µM | 20.8 µM | 22.5 µM | 18200 nM
CNCCNc1nc2ccccc2c2c(=O)c3cc(F)ccc3sc12 | 3.09 µM | 6.96 µM | 2.81 µM | 3.21 µM | 4.79 µM | 2.98 µM | 3.18 µM | 3.66 µM | 3.84 µM | 3.4 µM | 1590 nM | 2050 nM | 1490 nM | 1.48 µM | 2000 nM | 1570 nM | 1.61 µM | 1.8 µM | 1.85 µM | 1820 nM
